The target of one test is T1, IRE1α* (Homo sapiens, UniProt O75460).
T1 construct: human IRE1α (residues 547-977, IRE1α*) was expressed in SF9 insect cells; His6 (N); made in house; host or cells: Sf9 insect cells (Bac-to-Bac baculovirus)
Kind of test: In vitro kinase activity assay (IRE1α kinase inhibition). The class given is biochemical. The settings on record: for IC50: IRE1α kinase inhibition, read-out: IC50 IRE1a; for Ki: read-out: Inhibition of IRE1α*'s kinase activity, Ki. On the procedure:
A construct containing the cytosolic kinase and RNase domains of human IRE1α (residues 547-977, IRE1α*) was expressed in SF9 insect cells by using the Bac-to-Bac baculovirus expression system (Invitrogen) with a His6 tag at the N-terminus and purified with a nickel-nitriloacetic acid (Qiagen) column. To generate dP-IRE1α*, we removed basal phosphorylation sites by incubating IRE1α* with λ-PPase (New England Biolabs) at a molar ratio of 5:1 (IRE1α*: λ-PPase) in 50 mM HEPES pH 7.5, 100 mM NaCl, 1 mM MnCl2, 2 mM dithiothreitol (DTT) and 0.01% Brij 35 detergent (v/v) overnight at 4° C. Dephosphorylation was verified through western blotting using a universal phospho-protein detection agent (biotin-pIMAGO (Tymora Analytical Operations, Cat. No.: FL800) and imaged using a streptavidin-linked fluorophore.
In Vitro Kinase Activity Assay
Inhibitors (initial concentration of 10 or 60 μM, three-fold serial dilutions) were incubated with IRE1α* in cleavage buffer (20 mM HEPES, 0.05% Triton X-100 (v/v), 50 mM KCl, 1 mM MgCl2, 1 mM DTT, pH 7.5) for 30 min, followed by incubation with 10 μCi [γ^32P] ATP (3,000 Ci mmol^−1, PerkinElmer) at 23° C. for 3 hours. Samples were then spotted onto glass fiber paper (Easytab-C Glass Fiber Filter Paper, Perkin Elmer) and washed in twice with 0.5% phosphoric acid and autoradiographed using a GE Typhoon FLA 9000 Imager. Blots were quantitated using ImageQuant software. The percent inhibition was quantified by setting the background (no kinase well) as 0 and standardizing to IRE1α* without compound treatment (IRE1α*+DMSO). Dose-response curves were fit using “one-site fit log IC50” parameter using GraphPad Prism analysis software.
Compound Characterization (IC50 IRE1α Kinase Inhibition)

The test system of the next test is XBP1 mRNA splicing. Kind of test: XBP1 mRNA splicing in INS-1 cells conditionally overexpressing IRE1α (Dox). The note with it: 3, 10 μM for 1 hour, then Dox (1 μg/mL) for 4 hours. Type of test: cell-based, rat. On the procedure: (§1) RNA Isolation, Quantitative Real-Time PCR, and Primers
(§2) INS-1 or isogenic IRE1α-overexpressing INS-1 cells were plated onto Poly-D-Lysine coated tissue culture plate and grown for 48 hrs. Inhibitors or DMSO were added to the media and incubated for 1 hour at 37° C. with 5% CO2 prior to addition of ER stress agents or Dox as indicated. RNA was isolated from whole cells using either QIAGEN RNeasy Mini kits or Trizol (Invitrogen) and reverse transcribed as above to obtain total cDNA. Then, XBP-1 primers were used to amplify an XBP-1 amplicon spanning the 26 nt intron from the cDNA samples in a regular 3-step PCR. Thermal cycles were: 5 min at 95° C., 30 cycles of 30 s at 95° C., 30 s at 60° C., and 1 min at 72° C., followed by 72° C. for 15 min, and hold at 4° C. Primers used for XBP-1 mRNA splicing were as follows: sense primer XBP1.3 S (5′ […]-3′ (SEQ ID NO:2)) and antisense primer XBP1.2AS (5′-[…]-3′ (SEQ ID NO:3)). PCR fragments were then digested by PstI, resolved on 3% agarose gels, stained with EtBr and quantified by densitometry using ImageJ (NIH). For standard mRNA detection, generally […] total RNA was reverse transcribed using the QuantiTect Reverse Transcription Kit (QIAGEN). For qPCR, we used SYBR green (QIAGEN) and StepOnePlus Real-Time PCR System (Applied Biosystems). Thermal cycles were: 5 min at 95° C., 40 cycles of 15 sec at 95° C., 30 sec at 60° C. Gene expression levels were normalized to Beta Actin. Primers used for qPCR of RIDD targets were as follows: Beta Actin Fwd: 5′-[…]-3′ (SEQ ID NO:4), Beta Actin Rev: 5′-[…]-3′ (SEQ ID NO:5), Insulin 1 Fwd: 5′-GTCCTCTGGGAGCCCAAG-3′ (SEQ ID NO:6), Insulin 1 Rev: 5′-ACAGAGCCTCCACCAGG-3′ (SEQ ID NO:7), Insulin 2 Fwd: 5′-ATCCTCTGGGAGCCCCGC-3′ (SEQ ID NO:8), Insulin 2 Rev: 5′-AGAGAGCTTCCACCAAG-3′ (SEQ ID NO:9), Blos1 Fwd: 5′-[…]-3′ (SEQ ID NO:10), and Blos1 Rev: 5′-[…]-3′ (SEQ ID NO:11).
RNA was extracted using Trizol (Invitrogen), DNaseI treated, and cDNA products encompassing the intron amplified by QuantiTect Reverse Transcription Kit (Qiagen). sense Primer rXBP Forward (5′-[…]-3′ (SEQ ID NO:12)) and antisense primer rXBP Reverse (5′-[…]-3′ (SEQ ID NO:13)) were used. PCR fragments were digested by PstI, resolved on 3% agarose gels, stained with EtBr, and quantified by densitometry.
XBP1 splicing for FIGS. 33A-33F: RNA was extracted using Trizol (Invitrogen), cDNA products encompassing the intron amplified by QuantiTect Reverse Transcription Kit (Qiagen). Sense Primer rXBP splicing Forward (5′-[…]-3′ (SEQ ID NO:12)) and antisense primer rXBP splicing Reverse (5′-[…]-3′ (SEQ ID NO:13)) were used. PCR fragments were digested by PstI, resolved on 3% agarose gels, stained with EtBr, and quantified by densitometry.

Test [1] has as its system RIDD (IRE1α-dependent mRNA decay). Kind of test: Real-time PCR of RIDD mRNA targets in INS-1 cells overexpressing IRE1α (Dox). The note with it: 3, 10 μM for 1 hour, then Dox (5 ng/mL) for 24 hours. Type of test: cell-based, rat. On the procedure:
as §1, §2
Real-Time PCR (Q-PCR) used SYBR green and Step OnePlus Real-Time PCR System (Applied Biosystems). Thermal cycles were: 5 min at 95° C., 40 cycles of 15 s at 95° C., 30 s at 60° C. Gene expression levels were normalized to GAPDH. Q-PCR Sense/antisense primers used: Rat GAPDH, 5′-[…]-3′ (SEQ ID NO:14) and 5′-[…]-3′ (SEQ ID NO:15); Rat Ins1, 5′-GTCCTCTGGGAGCCCAAG-3′ (SEQ ID NO:6) and 5′-ACAGAGCCTCCACCAGG-3′ (SEQ ID NO:7); Rat Pdia4, 5′-CGTCTCGCCCTGATTCGT-3′ (SEQ ID NO:16) and 5′-[…]-3′ (SEQ ID NO:17); Rat Blos1, 5′-[…]-3′ (SEQ ID NO:18) and 5′-TGTCCAGTTCGATGCTCCG-3′ (SEQ ID NO:19).
Real-time PCR for FIGS. 34A-34F: Real-Time PCR (Q-PCR) used SYBR green and Step OnePlus Real-Time PCR System (Applied Biosystems). Thermal cycles were: 5 min at 95° C., 40 cycles of 15 s at 95° C., 30 s at 60° C. Gene expression levels were normalized to GAPDH. Q-PCR Sense/antisense primers used: Rat GAPDH, 5′-[…]-3′ (SEQ ID NO:20) and 5′-[…]-3′ (SEQ ID NO:21); Rat Ins1, 5′-GTCCTCTGGGAGCCCAAG-3′ (SEQ ID NO:6) and 5′-ACAGAGCCTCCACCAGG-3′ (SEQ ID NO:7); Rat Ins2, 5′-ATCCTCTGGGAGCCCCGC-3′ (SEQ ID NO:8) and 5′-AGAGAGCTTCCACCAAG-3′ (SEQ ID NO:9); Rat Pdia4, 5′-[…]-3′(SEQ ID NO:22) and 5′-[…]-3′ (SEQ ID NO:23); Rat Blos1, 5′-[…]-3′ (SEQ ID NO:18) and 5′-TGTCCAGTTCGATGCTCCG-3′ (SEQ ID NO:19).

Molecules are shown by their SMILES.

T1 sequence (O75460 547-977): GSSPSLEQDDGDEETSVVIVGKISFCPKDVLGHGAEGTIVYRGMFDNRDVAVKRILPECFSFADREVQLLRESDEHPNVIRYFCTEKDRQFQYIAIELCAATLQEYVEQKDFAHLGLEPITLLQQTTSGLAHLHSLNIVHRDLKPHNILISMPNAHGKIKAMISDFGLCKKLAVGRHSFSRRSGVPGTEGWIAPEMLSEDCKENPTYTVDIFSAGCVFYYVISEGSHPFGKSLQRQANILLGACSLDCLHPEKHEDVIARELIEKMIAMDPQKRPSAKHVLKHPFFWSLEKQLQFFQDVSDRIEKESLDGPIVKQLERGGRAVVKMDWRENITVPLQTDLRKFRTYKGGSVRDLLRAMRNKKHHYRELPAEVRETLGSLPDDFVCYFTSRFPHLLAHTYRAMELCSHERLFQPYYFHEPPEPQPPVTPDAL

In the case of `Cc1cc(NS(=O)(=O)CC(F)(F)F)c2ccccc2c1Oc1ncccc1-c1ccnc(N[C@H]2CCCNC2)n1` [LBC-0000389, (S)-2,2,2-trifluoro-N-(3-methyl-4-((3-(2-(piperidin-3-ylamino)pyrimidin-4-yl)pyridin-2-yl)oxy)naphthalen-1-yl) ethane sulfonamide], on IRE1α*, the half-maximal inhibitory concentration (IC50) (as a rule, the midpoint of a concentration-inhibition curve) is 8 nM.
The same measure, in the same setting: as for `Cc1c(F)c(NS(=O)(=O)CC(F)(F)F)c2ccccc2c1Oc1ncccc1-c1ccnc(N[C@H]2CCCNC2)n1` [LBC-0000390, (S)-2,2,2-trifluoro-N-(2-fluoro-3-methyl-4-((3-(2-(piperidin-3-ylamino)pyrimidin-4-yl)pyridin-2-yl)oxy)naphthalen-1-yl) ethane-1-sulfonamide], the figure is 9.5 nM.
Take `O=S(=O)(CC(F)(F)F)Nc1ccc(Oc2ncccc2-c2ccnc(N[C@@H]3CNC[C@@H](F)C3)n2)c2ccccc12` [LBC-0000398, 2,2,2-trifluoro-N-(4-((3-(2-(((3S,5S)-5-fluoropiperidin-3-yl)amino)pyrimidin-4-yl)pyridin-2-yl)oxy)naphthalen-1-yl) ethane-1-sulfonamide]: on IRE1α*, the IC50 was 7.2 nM.
Still for that read-out and setting: the figure for `Cc1c(F)c(NS(=O)(=O)CC(F)(F)F)c2ccccc2c1Oc1ncccc1-c1ccnc(N[C@@H]2CNC[C@@H](F)C2)n1` [LBC-0000399, 2,2,2-trifluoro-N-(2-fluoro-4-((3-(2-(((3S,5S)-5-fluoropiperidin-3-yl)amino)pyrimidin-4-yl)pyridin-2-yl)oxy)-3-methylnaphthalen-1-yl) ethane-1-sulfonamide] is 5.1 nM; for `Cc1c(F)c(NS(C)(=O)=O)c2ccccc2c1Oc1ncccc1-c1ccnc(N[C@H]2CCCNC2)n1` [LBC-0000401, (S)—N-(2-fluoro-3-methyl-4-((3-(2-(piperidin-3-ylamino)pyrimidin-4-yl)pyridin-2-yl)oxy)naphthalen-1-yl) methane sulfonamide] it is 16 nM.
Take `Cc1cc(NS(=O)(=O)CC2CC2)c2ccccc2c1Oc1ncccc1-c1ccnc(N[C@@H]2CNC[C@@H](F)C2)n1` [LBC-409, 1-cyclopropyl-N-(4-((3-(2-(((3S,5S)-5-fluoropiperidin-3-yl)amino)pyrimidin-4-yl)pyridin-2-yl)oxy)-3-methylnaphthalen-1-yl)methanesulfonamide]: the IC50 at IRE1α* is 7.4 nM. Moreover, the “% spliced XBP1 amplicons” value in the test on XBP1 mRNA splicing is given as “do not suppress XBP mRNA splicing”. The “RIDD mRNA targets (Ins1, Ins2, Pdia4)” value in test [1] is “block RIDD”.
Take `Cc1cc(NS(=O)(=O)CCC(F)(F)F)c2ccccc2c1Oc1ncccc1-c1ccnc(N[C@@H]2CNC[C@@H](F)C2)n1` [LBC-410, 3,3,3-trifluoro-N-(4-((3-(2-(((3S,5S)-5-fluoropiperidin-3-yl)amino)pyrimidin-4-yl)pyridin-2-yl)oxy)-3-methylnaphthalen-1-yl)propane-1-sulfonamide]: the IC50 at IRE1α* is 3.4 nM. Besides, the “% spliced XBP1 amplicons” value in the test with XBP1 mRNA splicing is on record as “suppresses XBP1 splicing”. The “RIDD mRNA targets (Ins1, Ins2, Pdia4)” value in test [1] is given as “block RIDD”.
The like results for `Cc1cc(NS(=O)(=O)C2CCC2)c2ccccc2c1Oc1ncccc1-c1ccnc(N[C@@H]2CNC[C@@H](F)C2)n1` [LBC-411, N-(4-((3-(2-(((3S,5S)-5-fluoropiperidin-3-yl)amino)pyrimidin-4-yl)pyridin-2-yl)oxy)-3-methylnaphthalen-1-yl)cyclobutanesulfonamide] were, in that order, 4.4 nM, “do not suppress XBP mRNA splicing” and “block RIDD”.
Regarding `Nc1ccc(Oc2ncccc2-c2ccnc(N[C@H]3CC[C@H](N)CC3)n2)cc1F` [compound 1, (1r,4r)-N1-(4-(2-(4-amino-3-fluorophenoxy)pyridin-3-yl)pyrimidin-2-yl) cyclohexane-1,4-diamine], the inhibition constant Ki (commonly a measure of affinity in units of concentration, obtained from inhibition or displacement) on IRE1α* amounted to 480 nM.
As to `N[C@H]1CC[C@H](Nc2nccc(-c3cccnc3Oc3ccc(NS(=O)(=O)C4CC4)c4ccccc34)n2)CC1` [compound 5, N-(4-(3-(2-((1r,4r)-4-aminocyclohexylamino)pyrimidin-4-yl)pyridin-2-yloxy)naphthalen-1-yl)cyclopropanesulfonamide], the Ki on IRE1α* was determined as 140 nM.
Still for that read-out and setting: as for `N[C@H]1CC[C@H](Nc2nccc(-c3cccnc3Oc3cccc4c(NS(=O)(=O)C5CCC5)cccc34)n2)CC1` [compound 6, N-(5-(3-(2-((1r,4r)-4-aminocyclohexylamino)pyrimidin-4-yl)pyridin-2-yloxy)naphthalen-1-yl) cyclobutanesulfonamide], the figure is 98 nM.

The values are drawn from patent publication US11884649B2, “IRE1α inhibitors and uses thereof” (The Regents of the University of California, priority 2020, dated 2024).
